Read-outs that look alike come from different tables or passages of the source.
Columns and labels:
[1] = target: T1, Cdk2/cyclin A (Homo sapiens, UniProt P24941); assay: Cdk2/cyclin A inhibition assay; format: biochemical; conditions: read-out: K2/A
T1 construct: made in house; host or cells: Sf9 cells
Excerpt: (§1) Enzymes: Cdc2/cyclin B was obtained from commercial sources. Cdk2/his-cyclin Eshort was expressed in Sf9 cells. Cdk2/cyclin A, cdk4/cyclin D1, and cdk6/cyclin D2 were expressed in Sf9 cells. Protein kinase A (catalytic subunit, from bovine heart) and protein kinase C (mixed isozymes from rat brain) were obtained from commercial sources.

[2] = target: T2, CDK2/cyclinE (Homo sapiens, UniProt P24941); assay: Cdk2/cyclin E inhibition, glutathione-sepharose capture assay; format: biochemical; parameters: made in house; host or cells: Sf9 insect cells; conditions: 50 μM ATP, GST-Rb substrate; read-out: K2/E
Excerpt: as §1
(§2) Substrates: Histone H1 was from commercial sources. GST-Rb is glutathione-S-transferase fused to the N-terminal of residues 379-928 of the Rb protein.
(§3) Cdk2/cyclin E, Cdk4/cyclin D1, and Cdk6/cyclin D2 activity was determined using a glutathione-sepharose capture assay. The enzymes were expressed in Sf9 insect cells as heterodimers, and the substrate (GST-Rb) was glutathione-S-transferase fused to residues 379 to 928 of Rb retinoblastoma protein, expressed in E. coli. The assay solution contained 50 mM Tris.HCl, 10 mM MgCl2, 1 mM dithiothreitol, 50 μM adenosine triphosphate, 2 μCi [γ-^33P]adenosine triphosphate, 10% dimethylsulfoxide (from compounds), pH 7.5, 40 µg GST-Rb, and enzyme in a 100 μL volume. Compounds were added at various concentrations between 1 nM and 10 μM. The reaction was allowed to proceed for 15 min at 30° C. and was stopped by the addition of 70 μL of stop solution (237 mM disodium ethylenediamine tetraacetate, 105 mM adenosine triphosphate, pH 8.0). The GST-Rb was captured by binding to glutathione-sepharose bead (Amersham) for 110 min, and the suspension was filtered through a glass fiber filter. After washing the retained beads five time with phosphate-buffered saline containing 0.3% (w/v) Tween-20, the amount of ^33P incorporated was determined by scintillation counting after adding 100 μL scintillant. Relative activity was determined by dividing the amount of radioactivity incorporated in the presence of compound by the amount of radioactivity incorporated in a control experiment containing DMSO alone but no compound. The background radioactivity, determined in an experiment containing 50 mM disodium ethylenediamine tetraacetate in place of compound, was subtracted from all results before calculations.

[3] = target: T3, Cdk4/cyclin D1 (Homo sapiens, UniProt P11802); assay: Cdk4/cyclin D1 inhibition, glutathione-sepharose capture assay; format: biochemical; conditions: read-out: K4/D1
T3 construct: made in house; host or cells: Sf9 insect cells
Excerpt: as §1, §2, §3

[4] = target: T4, Cdc2/cyclin B (Homo sapiens, UniProt P06493); assay: Cdc2/cyclin B inhibition, TCA precipitation assay; format: biochemical; conditions: 50 μM ATP, Histone H1 substrate
T4 construct: purchased
Procedure: as §1
Assays: Cdc2/cyclinB activity was determined by measuring incorporation of radioactivity from adenosine [γ-^32P]triphosphate into Histone H1 using a TCA precipitation assay. Cdc2/cyclin B kinase and Histone H1 were obtained from commercial sources. The final assay solution contained 50 mM Tris.HCl, 10 mM MgCl2, 1 mM dithiothreitol, 50 μM adenosine triphosphate, 2 μCi ^32P, 10% dimethylsulfoxide (from compounds), pH 7.5, 20 μg Histone H1, 6 U enzyme in a 50 μL volume. Compounds were added at various concentrations between 1 nM and 10 μM. The reaction was started with the addition of enzyme, allowed to proceed for 20 min at 30° C., and stopped by the addition of 20 μL of stop solution (237 mM disodium ethylenediamine tetraacetate, 105 mM adenosine triphosphate, pH 8.0). The protein was precipitated by the addition of 35 μL 70% (w/v) trichloroacetic acid, and the precipitate was captured on a 96-well glass fiber filter plate (Millipore, Inc.), which had been wet with 25% (w/v) trichloroacetic acid. The filter was washed ten times with 25% (w/v) trichloroacetic acid, and the amount of incorporated ^32P was determined by scintillation counting after adding 100 μL scintillant (Microscint 20, Packard Instruments). Relative activity was determined by dividing the amount of radioactivity incorporated in the presence of compound by the amount of radioactivity incorporated in a control experiment containing DMSO alone but no compound. The background radioactivity, determined in an experiment containing 50 mM EDTA in place of compound, was subtracted from all results before calculations.
P=min+(max−min)(1/(1+(IC50/[I])^s)) (1)
where P=1—relative activity is relative inhibition, [I] is concentration of compound, max and min are the maximum and minimum relative inhibition (1 and 0, respectively) and s is the so-called Hill slope.

[5] = target: T5, Cdk6/cyclin D2 (Homo sapiens, UniProt Q00534); assay: Cdk6/cyclin D2 inhibition, glutathione-sepharose capture assay; format: biochemical; conditions: 50 μM ATP, GST-Rb substrate; read-out: K6/D2
T5 construct: made in house; host or cells: Sf9 insect cells
Excerpt: as §1, §2, §3

[6] = target: c-Abl (Homo sapiens, UniProt P00519); assay: c-Abl inhibition; format: biochemical
[7] = target: T6, Protein kinase A (catalytic subunit, from bovine heart) (Bos taurus, UniProt P00517); assay: Protein kinase A inhibition, TCA precipitation assay; format: biochemical; conditions: 12 μM ATP, Histone H1; read-out: PKA
T6 construct: Protein kinase A (catalytic subunit, from bovine heart); purchased; host or cells: bovine heart
Procedure: as §1
Protein kinase C and protein kinase A were assayed using a TCA precipitation assay with Histone H1 as a substrate. For protein kinase A, the final assay contained 50 mM Tris, 10 mM MgCl2, 1 mM dithiothreitol, pH 7.5, 12 μM adenosine triphosphate, 10% (v/v) dimethylsulfoxide (from compounds), 20 μg Histone H1, 2 μCi [γ-^32P] adenosine triphosphate, 0.2 U protein kinase A in a 100 μL assay. A protein kinase C assay contained 50 mM Tris, 10 mM MgCl2, 1 mM dithiothreitol, 0.8 mM CaCl2, pH 7.5, 5 μM adenosine triphosphate, 10% (v/v) dimethylsulfoxide (from compounds), 20 μg Histone H1, 2 μCi [γ-^32P] adenosine triphosphate, 0.01 U protein. kinase C in a 50 μL assay. The assays were started by the addition of enzyme, allowed to react for 10 min at 30° C., and stopped by adding 0.4 volumes of 237 mM disodium ethylenediamine tetraacetate, 105 mM adenosine triphosphate, pH 8.0. The protein was precipitated from the stopped reaction by adding 0.5 volume 75% (w/v) trichloroacetic acid and captured by filtering through a 96-well glass fiber filtration apparatus (Millipore). The filters were washed ten times with 25% (w/v) trichloroacetic acid, and the amount of incorporated [^32P]phosphate was determined by adding 100 μl Microscint and scintillation counting.

[8] = target: T2, CDK2/cyclinE; assay: BIACORE SPR binding of CDK2/cyclinE to compound-loaded CM5 chip; conditions: 22° C., compound coupled to CM5 chip, Langmuir 1:1 model
Procedure: The affinity of chemical compounds to their corresponding binding partners may be determined, for example, using a BIACORE™ assay system (Biacore AB, Uppsala, SE). Other systems yielding a qualitatively similar result, such as, for example, those developed by Affinity Sensors (Cambridge, UK), will be readily apparent to those skilled in the art.
In a representative procedure, the binding of Compound R to its known binding partners CDK2/cyclinE was analyzed. The analysis was performed on a BLACORE 2000 SPR-Biosensor at 22° C. in a running buffer containing 20 mM HEPES (pH 7.4), 150 mM NaCl, 1 mM DTT and 0.005% Tween 20 (protein grade, Calbiochem). A 10 μM solution of Compound R was coupled at pH 8.0 to the dextrane-surface of a CM5 sensor-chip (research grade) via amide coupling chemistry. […] The association and dissociation of the CDK2/cyclinE complex onto the CM5-Compound R-loaded chip surface was measured at a flow rate of 30 μl/min. […]
The data were analyzed using the Bioevaluation software version 3.1 (Biacore AB, Uppsala, SE). […] The association and dissociation rates were determined separately or globally using a Langmuir 1:1 binding model. The affinities (KD) were calculated using the equation: […]

T5 sequence (Q00534 whole entry, species assumed): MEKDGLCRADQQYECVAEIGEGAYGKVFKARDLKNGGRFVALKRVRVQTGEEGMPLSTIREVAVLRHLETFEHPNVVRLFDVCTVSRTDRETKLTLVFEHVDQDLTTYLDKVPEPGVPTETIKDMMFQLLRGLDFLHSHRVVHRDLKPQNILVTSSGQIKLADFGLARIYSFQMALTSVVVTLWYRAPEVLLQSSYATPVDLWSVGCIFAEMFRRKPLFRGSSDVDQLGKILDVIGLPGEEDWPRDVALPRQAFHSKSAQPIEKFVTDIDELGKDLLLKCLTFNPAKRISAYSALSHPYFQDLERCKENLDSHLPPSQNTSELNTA
T5 sequence (P30279 whole entry partner, species assumed): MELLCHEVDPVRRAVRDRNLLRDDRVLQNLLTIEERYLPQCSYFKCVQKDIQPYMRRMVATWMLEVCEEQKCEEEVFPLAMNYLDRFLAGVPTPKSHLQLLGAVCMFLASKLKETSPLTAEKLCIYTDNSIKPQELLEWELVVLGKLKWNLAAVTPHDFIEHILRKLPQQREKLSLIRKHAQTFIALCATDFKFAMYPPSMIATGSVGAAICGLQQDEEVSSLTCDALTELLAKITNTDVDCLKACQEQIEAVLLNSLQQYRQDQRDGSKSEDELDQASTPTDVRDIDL
T3 sequence (P11802 whole entry, species assumed): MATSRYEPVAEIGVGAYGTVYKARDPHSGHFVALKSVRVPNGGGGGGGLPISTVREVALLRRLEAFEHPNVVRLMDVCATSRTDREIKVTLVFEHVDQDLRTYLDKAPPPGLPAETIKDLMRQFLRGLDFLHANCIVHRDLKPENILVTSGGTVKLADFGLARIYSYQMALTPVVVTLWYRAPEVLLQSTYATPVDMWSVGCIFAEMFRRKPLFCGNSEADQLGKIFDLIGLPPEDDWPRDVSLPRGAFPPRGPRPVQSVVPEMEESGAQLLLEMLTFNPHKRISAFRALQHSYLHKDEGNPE
T3 sequence (P24385 whole entry partner, species assumed): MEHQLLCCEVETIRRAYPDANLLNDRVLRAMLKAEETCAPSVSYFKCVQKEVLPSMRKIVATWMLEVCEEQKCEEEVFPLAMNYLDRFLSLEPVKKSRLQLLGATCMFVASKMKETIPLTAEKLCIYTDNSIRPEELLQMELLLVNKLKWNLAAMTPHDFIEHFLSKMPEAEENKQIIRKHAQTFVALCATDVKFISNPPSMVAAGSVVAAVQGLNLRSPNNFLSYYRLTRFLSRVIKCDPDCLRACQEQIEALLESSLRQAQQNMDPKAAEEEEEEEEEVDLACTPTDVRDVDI
T4 sequence (P06493 whole entry, species assumed): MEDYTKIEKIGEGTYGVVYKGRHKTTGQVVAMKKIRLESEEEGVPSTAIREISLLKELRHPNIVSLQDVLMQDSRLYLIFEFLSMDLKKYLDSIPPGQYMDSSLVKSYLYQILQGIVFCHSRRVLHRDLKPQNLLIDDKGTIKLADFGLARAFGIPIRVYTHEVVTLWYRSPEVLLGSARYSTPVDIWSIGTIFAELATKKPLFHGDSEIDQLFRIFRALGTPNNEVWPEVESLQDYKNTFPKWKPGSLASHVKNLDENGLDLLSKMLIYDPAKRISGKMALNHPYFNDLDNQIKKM
T4 sequence (P14635 whole entry partner, species assumed): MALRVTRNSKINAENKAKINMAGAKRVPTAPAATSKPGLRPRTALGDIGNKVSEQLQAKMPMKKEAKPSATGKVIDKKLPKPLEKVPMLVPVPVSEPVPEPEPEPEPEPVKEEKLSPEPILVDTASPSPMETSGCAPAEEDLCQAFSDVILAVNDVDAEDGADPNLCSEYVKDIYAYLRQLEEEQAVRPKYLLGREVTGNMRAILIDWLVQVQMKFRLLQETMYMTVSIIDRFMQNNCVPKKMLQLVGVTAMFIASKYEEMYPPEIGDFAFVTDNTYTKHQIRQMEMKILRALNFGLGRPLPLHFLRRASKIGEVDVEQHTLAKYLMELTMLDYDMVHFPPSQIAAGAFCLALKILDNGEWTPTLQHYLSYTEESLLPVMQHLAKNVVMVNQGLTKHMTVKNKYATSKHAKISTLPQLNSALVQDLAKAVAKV
Chain of c-Abl (P00519 whole entry): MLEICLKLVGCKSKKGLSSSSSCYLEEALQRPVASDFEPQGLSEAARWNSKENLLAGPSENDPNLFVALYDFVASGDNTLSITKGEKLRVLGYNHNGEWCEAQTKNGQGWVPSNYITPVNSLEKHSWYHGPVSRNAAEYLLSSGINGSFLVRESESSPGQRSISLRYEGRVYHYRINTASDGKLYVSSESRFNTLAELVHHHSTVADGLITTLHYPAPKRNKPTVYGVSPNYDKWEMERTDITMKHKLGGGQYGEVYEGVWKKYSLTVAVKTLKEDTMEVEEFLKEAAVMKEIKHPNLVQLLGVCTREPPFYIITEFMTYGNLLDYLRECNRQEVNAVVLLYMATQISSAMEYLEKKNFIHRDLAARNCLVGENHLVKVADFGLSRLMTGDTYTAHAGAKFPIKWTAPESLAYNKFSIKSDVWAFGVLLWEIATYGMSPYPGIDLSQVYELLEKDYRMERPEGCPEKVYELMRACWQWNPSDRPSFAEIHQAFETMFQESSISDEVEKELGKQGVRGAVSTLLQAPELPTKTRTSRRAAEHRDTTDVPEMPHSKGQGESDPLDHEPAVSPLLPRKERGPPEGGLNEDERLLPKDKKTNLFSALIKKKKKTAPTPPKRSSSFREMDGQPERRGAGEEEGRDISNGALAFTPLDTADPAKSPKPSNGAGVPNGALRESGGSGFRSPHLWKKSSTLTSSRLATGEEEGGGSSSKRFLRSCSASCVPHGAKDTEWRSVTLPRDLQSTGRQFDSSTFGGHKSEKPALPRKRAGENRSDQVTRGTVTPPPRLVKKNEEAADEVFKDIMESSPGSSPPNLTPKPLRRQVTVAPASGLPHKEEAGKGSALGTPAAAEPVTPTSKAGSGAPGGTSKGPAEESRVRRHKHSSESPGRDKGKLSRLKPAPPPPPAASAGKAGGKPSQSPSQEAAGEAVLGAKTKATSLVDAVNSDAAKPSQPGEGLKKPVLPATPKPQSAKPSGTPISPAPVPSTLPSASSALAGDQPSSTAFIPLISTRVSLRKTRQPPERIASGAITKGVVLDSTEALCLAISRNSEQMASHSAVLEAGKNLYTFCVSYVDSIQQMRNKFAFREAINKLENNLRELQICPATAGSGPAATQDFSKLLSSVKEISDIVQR

Compound | IC50 [1] | IC50 [2] | IC50 ([3]; 50 μM ATP, GST-Rb substrate) | IC50 [3] | IC50 [4] | IC50 [5] | IC50 [6] | IC50 [7] | Kd [8]
CC(C)c1nn(-c2c(Cl)cc(Cl)cc2Cl)c2nc(Cc3ccc(OCCN4CCOCC4)cc3)[nH]c(=O)c12 [A] | < 100 nM | < 100 nM | < 1000 nM | < 1000 nM | < 1000 nM | < 1000 nM |  |  | 
CC(C)c1nn(-c2c(Cl)cccc2Cl)c2nc(Cc3ccc(OP(=O)(O)O)cc3)[nH]c(=O)c12 [B] | < 100 nM | < 10 nM | < 10000 nM |  | < 100 nM |  |  |  | 
CC(C)c1nn(-c2c(Cl)cccc2Cl)c2nc(Cc3ccc(O)c(CN4CCN(C(C)C)CC4)c3)[nH]c(=O)c12 [Compound C] | < 100 nM | < 100 nM | < 1000 nM |  | < 1000 nM |  | > 10000 nM | > 10000 nM | 
O=C(Nc1cccc2c1C(=O)c1c-2n[nH]c1-c1ccc(OCCN2CCCC2)cc1)NN1CCOCC1 [Compound I] | < 100 nM | < 100 nM | < 10 nM |  | < 100 nM |  |  |  | 
Cc1cc(-c2[nH]nc3c2C(=O)c2c(NC(=O)NN4CCN(C)CC4)cccc2-3)ccc1OCCN1CCCC1 [Compound P] |  | < 100 nM |  |  |  |  |  |  | 
CC(C)c1nn(-c2c(Cl)cc(Cl)cc2Cl)c2nc(Cc3ccc(OC(C)(C)C(=O)NCCOCCOCCOCCOCCOCCN)cc3)[nH]c(=O)c12 [Compound R] |  |  |  |  |  |  |  |  | 8 nM
CC(C)c1nn(-c2c(Cl)cc(Cl)cc2Cl)c2nc(Cc3ccc(NS(=O)(=O)CCCN4CCOCC4)cc3)[nH]c(=O)c12 [D] | < 100 nM | < 100 nM | < 1000 nM |  | < 1000 nM |  |  |  | 
CC(C)N1CCN(CCOc2ccc(-c3[nH]nc4c3C(=O)c3c(NC(=O)NN5CCOCC5)cccc3-4)cc2)CC1 [E] | < 10 nM | < 10 nM | < 10 nM | < 10 nM | < 100 nM | < 10 nM | < 10000 nM | < 10000 nM | 
CN1CCN(NC(=O)Nc2cccc3c2C(=O)c2c-3n[nH]c2-c2ccc(OCCN3CCCC3)cc2)CC1 [F] | < 100 nM | < 100 nM | < 10 nM | < 10 nM | < 100 nM | < 10 nM |  |  | 
CCCN(CCOc1ccc(-c2[nH]nc3c2C(=O)c2c(NC(=O)NN4CCOCC4)cccc2-3)cc1)CC1CC1 [G] | < 100 nM | < 100 nM | < 10 nM |  | < 100 nM |  | > 10000 nM | > 10000 nM | 
O=C(Nc1cccc2c1C(=O)c1c-2n[nH]c1-c1ccc(OCCN(CCO)CCO)cc1)NN1CCOCC1 [H] | < 100 nM | < 100 nM | < 100 nM |  | < 100 nM |  |  |  | 
O=C(Nc1cccc2c1C(=O)c1c-2n[nH]c1-c1ccc(OP(=O)(O)O)cc1)NN1CCOCC1 [J] |  | < 100 nM |  |  |  |  |  |  | 
CC(C)N1CCN(Cc2cc(-c3[nH]nc4c3C(=O)c3c(NC(=O)NN5CCOCC5)cccc3-4)ccc2O)CC1 [K] |  | < 100 nM |  |  |  |  |  |  | 
Cc1cc(OCCN2CCCC2)ccc1-c1[nH]nc2c1C(=O)c1c(NC(=O)NN3CCN(C)CC3)cccc1-2 [L] |  | < 100 nM | < 100 nM |  | < 100 nM |  |  |  | 
CN1CCN(NC(=O)Nc2cccc3c2C(=O)c2c-3n[nH]c2-c2ccc(OCCN3CCC[C@H]3CO)cc2)CC1 [M] |  | < 100 nM |  |  |  |  |  |  | 
CN1CCN(NC(=O)Nc2cccc3c2C(=O)c2c-3n[nH]c2-c2ccc(OCCN(CCO)CCO)cc2)CC1 [N] |  | < 100 nM |  |  | < 10 nM |  |  |  | 
CN1CCN(NC(=O)Nc2cccc3c2C(=O)c2c-3n[nH]c2-c2ccc(OCCN3CC[C@H](O)C3)cc2)CC1 [O] |  | < 100 nM |  |  |  |  |  |  | 
CN1CCN(NC(=O)Nc2cccc3c2C(=O)c2c-3n[nH]c2-c2ccc(OCCN3CCOCC3)cc2)CC1 [Q] | < 100 nM | < 10 nM | < 10 nM | < 100 nM | < 100 nM | < 100 nM |  |  | 
